According to patent publication US12064426B2, “Selective inhibitors of ROCK1 and ROCK2 protein kinases and uses thereof” (GENOSCO Inc., priority 2021, dated 2024):

Legend:
[1] = target: T1, Recombinant ROCK1 (amino acids 1-477) (Homo sapiens, UniProt Q13464); assay: ROCK inhibition assay, LANCE Ultra TR-FRET kinase assay (ROCK1); format: biochemical; settings: 1 μM ATP, 50 nM ULight-CREBtide substrate
T1 construct: Recombinant ROCK1 (amino acids 1-477); by word order, ROCK1 from Carna Biosciences
T1 sequence (Q13464 1-477): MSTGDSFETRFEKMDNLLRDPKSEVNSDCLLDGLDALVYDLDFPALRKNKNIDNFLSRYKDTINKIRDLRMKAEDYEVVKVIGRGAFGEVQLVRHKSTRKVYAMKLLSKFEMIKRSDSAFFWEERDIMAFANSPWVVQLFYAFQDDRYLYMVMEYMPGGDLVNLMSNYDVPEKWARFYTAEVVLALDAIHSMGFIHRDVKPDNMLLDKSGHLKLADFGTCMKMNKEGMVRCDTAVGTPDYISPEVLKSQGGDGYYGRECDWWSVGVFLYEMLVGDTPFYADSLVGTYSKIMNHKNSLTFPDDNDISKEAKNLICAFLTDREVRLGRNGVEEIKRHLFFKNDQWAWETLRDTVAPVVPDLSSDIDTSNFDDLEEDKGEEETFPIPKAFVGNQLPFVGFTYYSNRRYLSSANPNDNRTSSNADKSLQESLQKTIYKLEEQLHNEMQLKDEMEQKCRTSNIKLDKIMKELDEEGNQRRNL
Procedure, shortened: (§1)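 Reaction buffer 50 mM HEPES pH 7.5, 10 mM MgCl2, 1 mM EGTA, 2 mM DTT; kinase, ULight-CREBtide (50 nM) and ATP (ROCK1 1 μM, ROCK2 4 μM) react 1 h at room temperature. Phospho-Ser133 detected by europium antibody after 10 mM EDTA stop, TR-FRET ex 320 nm; IC50 calculated.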

[2] = target: T2, Recombinant ROCK2 (amino acids 5-554) (Homo sapiens, UniProt O75116); assay: ROCK inhibition assay, LANCE Ultra TR-FRET kinase assay (ROCK2); format: biochemical; settings: 4 μM ATP, 50 nM ULight-CREBtide substrate
T2 construct: ROCK2 (amino acids 5-554); by word order, ROCK2 from SignalChem
T2 sequence (O75116 5-554): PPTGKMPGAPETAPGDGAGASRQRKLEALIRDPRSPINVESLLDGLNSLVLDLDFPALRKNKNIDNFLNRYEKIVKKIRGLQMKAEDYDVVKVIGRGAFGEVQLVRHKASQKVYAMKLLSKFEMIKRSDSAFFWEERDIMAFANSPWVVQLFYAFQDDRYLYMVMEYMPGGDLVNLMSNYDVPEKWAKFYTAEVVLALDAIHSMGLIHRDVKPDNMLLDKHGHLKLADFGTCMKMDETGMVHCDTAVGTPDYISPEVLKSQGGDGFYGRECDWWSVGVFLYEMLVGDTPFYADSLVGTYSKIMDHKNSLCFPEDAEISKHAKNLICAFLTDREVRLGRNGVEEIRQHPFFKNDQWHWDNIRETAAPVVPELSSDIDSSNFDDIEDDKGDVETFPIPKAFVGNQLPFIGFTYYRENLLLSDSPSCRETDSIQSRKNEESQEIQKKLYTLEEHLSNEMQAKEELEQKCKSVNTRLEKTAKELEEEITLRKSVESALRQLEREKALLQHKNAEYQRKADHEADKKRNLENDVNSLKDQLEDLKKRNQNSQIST
Procedure, shortened: as §1

| SMILES | IC50 [1] | IC50 [2] |
| --- | --- | --- |
| Nc1cc(-c2ccc3c(=O)n(Cc4cccc(C(=O)NCc5ccc6ccccc6c5)c4)ccc3c2)ccn1 [Compound 182] | > 501 nM | 100 to 500 nM |
| Nc1cc(-c2ccc3c(=O)n(Cc4cccc(C(=O)NC5CCCC5)c4)ccc3c2)ccn1 [Compound 198] | > 501 nM | 100 to 500 nM |
| Nc1cc(-c2ccc3c(=O)n(Cc4cccc(C(=O)Nc5ncc[nH]5)c4)ccc3c2)ccn1 [Compound 199] | > 501 nM | 100 to 500 nM |
| Nc1cc(-c2ccc3c(=O)n(Cc4cc(F)cc(C(=O)NC5COC5)c4)ccc3c2)ccn1 [Compound 202] | > 501 nM | 100 to 500 nM |
| Nc1cc(-c2ccc3c(=O)n(Cc4cccc(C(=O)Nc5ccno5)c4)ccc3c2)ccn1 [Compound 203] | > 501 nM | 100 to 500 nM |
| Nc1cc(-c2ccc3c(=O)n(Cc4cccc(C(=O)Nc5ccon5)c4)ccc3c2)ccn1 [Compound 204] | > 501 nM | 100 to 500 nM |
| Nc1cc(-c2ccc3c(=O)n(Cc4cc(F)cc(C(=O)Nc5ccon5)c4)ccc3c2)ccn1 [Compound 205] | > 501 nM | 100 to 500 nM |
| O=C(Nc1ccno1)c1cccc(Cn2ccc3cc(N4CCOCC4)ccc3c2=O)c1 [Compound 206] | > 501 nM | > 500 nM |
| O=C(NC1COC1)c1cc(F)cc(Cn2ccc3cc(N4CCOCC4)ccc3c2=O)c1 [Compound 208] | > 501 nM | 100 to 500 nM |
| O=C(N[C@H]1C[C@@H](O)C1)c1cc(F)cc(Cn2ccc3cc(N4CCOCC4)ccc3c2=O)c1 [Compound 209] | > 501 nM | 100 to 500 nM |
| O=C(N[C@H]1C[C@H](O)C1)c1cc(F)cc(Cn2ccc3cc(N4CCOCC4)ccc3c2=O)c1 [Compound 210] | > 501 nM | 100 to 500 nM |
| O=C(NC1CCOCC1)c1cc(F)cc(Cn2ccc3cc(N4CCOCC4)ccc3c2=O)c1 [Compound 211] | > 501 nM | 100 to 500 nM |
| O=C(NC1CCOCC1)c1cccc(Cn2ccc3cc(N4CCOCC4)ccc3c2=O)c1 [Compound 212] | > 501 nM | 100 to 500 nM |
| O=C(N[C@H]1CC[C@H](O)CC1)c1cccc(Cn2ccc3cc(N4CCOCC4)ccc3c2=O)c1 [Compound 213] | > 501 nM | 100 to 500 nM |
| O=C(N[C@H]1CC[C@@H](O)CC1)c1cccc(Cn2ccc3cc(N4CCOCC4)ccc3c2=O)c1 [Compound 214] | > 501 nM | 100 to 500 nM |
| O=C(N[C@H]1CC[C@@H](O)CC1)c1cc(F)cc(Cn2ccc3cc(N4CCOCC4)ccc3c2=O)c1 [Compound 215] | > 501 nM | 100 to 500 nM |
| O=C(NCC1CCN(CC(F)(F)F)CC1)c1cccc(Cn2ccc3cc(N4CCOCC4)ccc3c2=O)c1 [Compound 220] | 101 to 500 nM | 10 to 100 nM |
| O=C(NCC1CCN(CC(F)(F)F)CC1)c1cc(F)cc(Cn2ccc3cc(N4CCOCC4)ccc3c2=O)c1 [Compound 221] | 101 to 500 nM | 10 to 100 nM |
| CN1CCC(CNC(=O)c2cc(F)cc(Cn3ccc4cc(N5CCOCC5)ccc4c3=O)c2)CC1 [Compound 222] | 101 to 500 nM | 10 to 100 nM |
| CC(C)N1CCC(CNC(=O)c2cccc(Cn3ccc4cc(N5CCOCC5)ccc4c3=O)c2)CC1 [Compound 223] | 101 to 500 nM | 10 to 100 nM |
| CC(C)N1CCC(CNC(=O)c2cc(F)cc(Cn3ccc4cc(N5CCOCC5)ccc4c3=O)c2)CC1 [Compound 224] | 101 to 500 nM | 10 to 100 nM |
| O=C(NCC1CCN(C2CC2)CC1)c1cccc(Cn2ccc3cc(N4CCOCC4)ccc3c2=O)c1 [Compound 225] | 101 to 500 nM | 10 to 100 nM |
| O=C(NCC1CCN(C2CC2)CC1)c1cc(F)cc(Cn2ccc3cc(N4CCOCC4)ccc3c2=O)c1 [Compound 226] | 101 to 500 nM | 10 to 100 nM |
| O=C(NCC1CCN(C2COC2)CC1)c1cccc(Cn2ccc3cc(N4CCOCC4)ccc3c2=O)c1 [Compound 227] | 101 to 500 nM | 10 to 100 nM |
| O=C(NCC1CCN(C2COC2)CC1)c1cc(F)cc(Cn2ccc3cc(N4CCOCC4)ccc3c2=O)c1 [Compound 228] | 101 to 500 nM | 10 to 100 nM |
| CNC(=O)c1cccc(Cn2ccc3cc(-c4ccnn4C)ncc3c2=O)c1 [Compound 240] | 101 to 500 nM | 10 to 100 nM |
| CNC(=O)c1cccc(Cn2ccc3cc(-c4conc4C)ncc3c2=O)c1 [Compound 241] | 101 to 500 nM | 10 to 100 nM |
| CNC(=O)c1cccc(Cn2ccc3cc(-c4cn[nH]c4C(F)(F)F)cnc3c2=O)c1 [Compound 242] | > 501 nM | 100 to 500 nM |

The next lines start with the values.

| IC50 [1] | IC50 [2] | SMILES |
| --- | --- | --- |
| 11 to 100 nM | 10 to 100 nM | CN1CCC(NC(=O)c2cc(F)cc(Cn3ccc4cc(-c5ccnn5C)ccc4c3=O)c2)CC1 [Compound 176] |
| 11 to 100 nM | < 10 nM | Cn1nccc1-c1ccc2c(=O)n(Cc3cc(F)cc(C(=O)NC4CCNCC4)c3)ccc2c1 [Compound 177] |
| 11 to 100 nM | < 10 nM | Cn1ccc(NC(=O)c2cc(F)cc(Cn3ccc4cc(-c5ccnn5C)ccc4c3=O)c2)n1 [Compound 179] |
| 101 to 500 nM | 10 to 100 nM | Nc1cc(-c2ccc3c(=O)n(Cc4cccc(C(=O)NCc5ccccc5)c4)ccc3c2)ccn1 [Compound 181] |
| 101 to 500 nM | 10 to 100 nM | NCc1ccccc1CNC(=O)c1cccc(Cn2ccc3cc(-c4ccnc(N)c4)ccc3c2=O)c1 [Compound 183] |
| 101 to 500 nM | 10 to 100 nM | Nc1cc(-c2ccc3c(=O)n(Cc4cccc(C(=O)NCCc5ccccc5)c4)ccc3c2)ccn1 [Compound 185] |
| 11 to 100 nM | < 10 nM | Nc1cc(-c2ccc3c(=O)n(Cc4cccc(C(=O)Nc5ccc6c(c5)CNCC6)c4)ccc3c2)ccn1 [Compound 187] |
| < 10 nM | < 10 nM | CN1CCc2cc(NC(=O)c3cccc(Cn4ccc5cc(-c6ccnc(N)c6)ccc5c4=O)c3)ccc2C1 [Compound 189] |
| < 10 nM | < 10 nM | Nc1cc(-c2ccc3c(=O)n(Cc4cccc(C(=O)Nc5nc6c(s5)CNCC6)c4)ccc3c2)ccn1 [Compound 190] |
| 11 to 100 nM | 10 to 100 nM | Nc1cc(-c2ccc3c(=O)n(Cc4cccc(C(=O)N[C@H]5CC[C@@H](O)CC5)c4)ccc3c2)ccn1 [Compound 192] |
| 101 to 500 nM | 10 to 100 nM | Nc1cc(-c2ccc3c(=O)n(Cc4cccc(C(=O)N[C@H]5CC[C@H](O)CC5)c4)ccc3c2)ccn1 [Compound 193] |
| 101 to 500 nM | 10 to 100 nM | Nc1cc(-c2ccc3c(=O)n(Cc4cccc(C(=O)NC5CCOCC5)c4)ccc3c2)ccn1 [Compound 194] |
| 101 to 500 nM | 10 to 100 nM | Nc1cc(-c2ccc3c(=O)n(Cc4cccc(C(=O)NC5COC5)c4)ccc3c2)ccn1 [Compound 195] |
| 101 to 500 nM | 10 to 100 nM | Nc1cc(-c2ccc3c(=O)n(Cc4cccc(C(=O)Nc5ccc6c(c5)CCOC6)c4)ccc3c2)ccn1 [Compound 196] |
| 11 to 100 nM | 10 to 100 nM | Nc1cc(-c2ccc3c(=O)n(Cc4cccc(C(=O)Nc5ccc6c(c5)COCC6)c4)ccc3c2)ccn1 [Compound 197] |
| 11 to 100 nM | < 10 nM | Cn1ccc(NC(=O)c2cc(F)cc(Cn3ccc4cc(-c5ccnc(N)c5)ccc4c3=O)c2)n1 [Compound 201] |

| IC50 [1] | IC50 [2] | SMILES |
| --- | --- | --- |
| 11 to 100 nM | 100 to 500 nM | O=C(NC1COC1)c1cccc(Cn2ccc3cc(N4CCOCC4)ccc3c2=O)c1 [Compound 207] |
| 101 to 500 nM | 100 to 500 nM | O=C(NCCN1CCOCC1)c1cccc(Cn2ccc3cc(N4CCOCC4)ccc3c2=O)c1 [Compound 216] |
| 101 to 500 nM | 10 to 100 nM | O=C(NCC1CCNCC1)c1cccc(Cn2ccc3cc(N4CCOCC4)ccc3c2=O)c1 [Compound 217] |
| 101 to 500 nM | 10 to 100 nM | CN1CCC(CNC(=O)c2cccc(Cn3ccc4cc(N5CCOCC5)ccc4c3=O)c2)CC1 [Compound 218] |
| 101 to 500 nM | 10 to 100 nM | O=C(NCC1CCN(CC(F)F)CC1)c1cccc(Cn2ccc3cc(N4CCOCC4)ccc3c2=O)c1 [Compound 219] |
| 11 to 100 nM | 10 to 100 nM | O=C(NCCN1CCOCC1)c1cc(F)cc(Cn2ccc3cc(N4CCOCC4)ccc3c2=O)c1 [Compound 229] |
| 11 to 100 nM | 10 to 100 nM | O=C(NCCN1CCOCC1)c1cccc(Cn2ccc3cc(N4CCOCC4)ccc3c2=O)c1 [Compound 230] |
| 11 to 100 nM | < 10 nM | CNC(=O)c1cccc(Cn2ccc3cc(-c4cc[nH]c4C)ncc3c2=O)c1 [Compound 231, N-methyl-3-((6-(2-methyl-1H-pyrrol-3-yl)-1-oxo-2,7-naphthyridin-2(1H)-yl)methyl)benzamide] |
| 11 to 100 nM | < 10 nM | [2H]C([2H])([2H])NC(=O)c1cccc(Cn2ccc3cc(-c4cc[nH]c4C)ncc3c2=O)c1 [Compound 232] |
| 11 to 100 nM | < 10 nM | [2H]C([2H])([2H])NC(=O)c1cccc(Cn2ccc3cc(-c4cn[nH]c4C(F)(F)F)ncc3c2=O)c1 [Compound 234] |
| 11 to 100 nM | < 10 nM | CNC(=O)c1cccc(Cn2ccc3cc(-c4c[nH]nc4Cl)ncc3c2=O)c1 [Compound 235] |
| 11 to 100 nM | < 10 nM | [2H]C([2H])([2H])NC(=O)c1cccc(Cn2ccc3cc(-c4c[nH]nc4Cl)ncc3c2=O)c1 [Compound 236] |
| 11 to 100 nM | < 10 nM | CNC(=O)c1cccc(Cn2ccc3cc(-c4cn[nH]c4C(F)F)ncc3c2=O)c1 [Compound 237] |
| 11 to 100 nM | < 10 nM | [2H]C([2H])([2H])NC(=O)c1cccc(Cn2ccc3cc(-c4cn[nH]c4C(F)F)ncc3c2=O)c1 [Compound 238] |
| 11 to 100 nM | < 10 nM | CNC(=O)c1cccc(Cn2ccc3cc(-c4c[nH]nc4C)ncc3c2=O)c1 [Compound 239] |
